Assay results: patent US9180156B2, “Composition for controlling increase in blood glucose” (priority 2008, dated 2015)
pIC50: −log10 of the molar value.

Key:
[1] = Intraperitoneal glucose tolerance test (IPGTT) in rats; assay type: in vivo, rat; details: catechin 10 mg/kg i.v. 30 min before glucose 2.0 g/kg i.p.; 12-h fasted rats (FIG. 2)
Method: Sprague-Dawley rats were provided by Hyochang Science Co. (Seoul, Korea). After a 12-h fast, rats were anesthetized using pentobarbital sodium (40 mg/kg, i.p.; Nembutal, 50 mg/ml, Hanlim Pharmaceutical Co., Seoul, Korea) and then injected with one of the epicatechins: EGCG, EGC, ECG, and EC (each 10 mg/kg in 300 μl PBS, i.v.). EC was dissolved in a minute amount of DMSO in advance before addition of PBS. In another experiment, rats were randomly divided into 3 groups: control, GTE and GTE-GC. The rats in the GTE group were injected with natural GTE (100 mg/kg in 300 μl PBS, i.v.; 10 mg/kg as EGCG) through the tail vein, while the control rats were injected with only 300 μl PBS and rats in the GTE-GC group were given an equal amount of GC-deficient GTE (100 mg/kg in 300 μl PBS, i.v.; 2.6 mg/kg as EGCG). Thirty minutes after the injection, glucose (2.0 g/kg in 600 μl distilled water, i.p.) was injected. For OGTT, the rats were ingested with 1-ml distilled water only (control), or 1-ml distilled water containing one of natural GTE (900 mg/kg), GC-deficient GTE (900 mg/kg), EGCG (90 mg/kg), natural GTE plus PEG (110 mg/100 mg EGCG) or PEG alone. Immediately after the ingestion, each rat was orally given 1-ml distilled water containing glucose (2 g/kg). For the assay of blood glucose levels, blood was drawn from the tail vein at the indicated times. All the experiments were approved by the Keimyung University institutional ethics committee, Daegu, Korea for supervising animal research.

[2] = target: T1, glucose transporter type 1 (Homo sapiens, UniProt P11166); details: red blood cells; read-out: concentration competing with glucose such that the reaction rate was half its maximal value; cited from earlier work
T1 construct: glucose transporter type 1 in red blood cells; host or cells: red blood cells (erythrocytes)
T1 sequence (P11166 1-492): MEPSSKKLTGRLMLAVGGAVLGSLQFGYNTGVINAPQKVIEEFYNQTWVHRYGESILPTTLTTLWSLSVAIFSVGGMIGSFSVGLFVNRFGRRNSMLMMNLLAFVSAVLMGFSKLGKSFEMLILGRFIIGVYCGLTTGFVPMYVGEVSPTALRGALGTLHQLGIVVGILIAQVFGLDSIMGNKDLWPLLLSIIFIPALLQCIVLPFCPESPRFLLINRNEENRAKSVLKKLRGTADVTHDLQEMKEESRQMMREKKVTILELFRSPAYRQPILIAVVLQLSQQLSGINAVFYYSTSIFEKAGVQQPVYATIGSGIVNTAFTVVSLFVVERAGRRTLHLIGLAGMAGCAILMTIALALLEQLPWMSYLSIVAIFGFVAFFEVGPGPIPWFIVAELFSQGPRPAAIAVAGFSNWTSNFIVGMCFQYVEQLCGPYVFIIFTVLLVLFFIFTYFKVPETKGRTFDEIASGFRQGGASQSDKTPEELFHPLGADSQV

U937 cells = details: cited from earlier work
OGTT in rats = assay type: in vivo, rat; details: GC-deficient GTE 900 mg/kg or EGCG 90 mg/kg oral immediately before oral glucose; rats (FIG. 6D)
[3] = Insulin tolerance test (ITT) in normal rats; assay type: in vivo, rat
Method: Kir6.2 knock-out (k/o) mice were kindly provided by Prof. Susumu Seino at Kobe University in Japan. Following a 4-h fast, Kir6.2 k/o mice or normal rats were intravenously injected with PBS (100 μl for mouse, 300 μl for rat) only, or PBS containing EGCG (10 mg/kg), natural GTE (100 mg/kg) or GC-deficient GTE (100 mg/kg). Thirty minutes after the injection, the mice and rats were injected intraperitoneally with normal saline (300 μl for mouse, 600 μl for rat) containing insulin (1 IU/kg; INSULIN […], Ind.). Blood samplings were done through the tail vein at the indicated times.

[4] = Insulin tolerance test (ITT) in Kir6.2 k/o mice; assay type: in vivo, mouse
Method: Kir6.2 knock-out (k/o) mice were kindly provided by Prof. Susumu Seino at Kobe University in Japan. Following a 4-h fast, Kir6.2 k/o mice or normal rats were intravenously injected with PBS (100 μl for mouse, 300 μl for rat) only, or PBS containing EGCG (10 mg/kg), natural GTE (100 mg/kg) or GC-deficient GTE (100 mg/kg). Thirty minutes after the injection, the mice and rats were injected intraperitoneally with normal saline (300 μl for mouse, 600 μl for rat) containing insulin (1 IU/kg; INSULIN LISPRO, Eli Lilly, Ind.). Blood samplings were done through the tail vein at the indicated times.

[5] = test system: differentiated L6 myoblasts; assay: Deoxyglucose uptake assay, L6; assay type: cell-based, rat; details: EGCG 0.1, 1.0, 10 μM; with or without 100 nM insulin (FIG. 3A)
Method: (§1) Rat L6 myoblasts were cultured in low-glucose DMEM with 10% (v/v) FBS until they reached 80% confluency. To induce differentiation, cells were further cultured in DMEM (24.9 mM glucose) containing 2% FBS for 7 days. Cell viability was assessed by the trypan blue viability test. Myogenic differentiation to myotube status was evaluated both morphologically and biochemically. Mouse 3T3-L1 preadipocytes were grown to confluence at 37° C. in 35-mm culture dishes in DMEM containing 10% FCS with no added biotin or pantothenate in incubators equilibrated with 5% CO2. […] Cell differentiation was evaluated by the Oil red-0 staining. […]
(§2) Briefly, after serum starvation for 30 min, the cells were washed with Krebs-Ringer phosphate-HEPES buffer [KRPH buffer: 10 mM phosphate buffer, pH 7.4; 1 mM MgSO4, 1 mM CaCl2, 136 mM NaCl, 4.7 mM KCl, and 10 mM HEPES, pH 7.6] and then incubated with or without 100 nM insulin for 20 min in KRPH buffer that contained EGCG (0, 0.1, 1.0 or 10 μM). Glucose transport was determined by the addition of 2-deoxy-[^3H] glucose (0.1 mM, 0.5 μCi/ml; PerkinElmer Life and Analytical Science, Waltham, Mass.). […] The cells were then lysed in PBS containing 0.2 M NaOH, and glucose uptake was assessed by scintillation counting.

HepG2 hepatocytes = assay: Deoxyglucose uptake assay, HepG2; assay type: cell-based, human; details: EGCG 0.1, 1.0, 10 μM; with or without 100 nM insulin (FIG. 3B)
Method: as §1, §2

[6] = test system: differentiated 3T3-L1 adipocytes; assay: Deoxyglucose uptake assay, 3T3-L1; assay type: cell-based, mouse; details: EGCG 0.1, 1.0, 10 μM; with or without 100 nM insulin (FIG. 3C)
Method: as §1, §2

INS-1 beta cells = assay: Deoxyglucose uptake assay, INS-1; assay type: cell-based, rat; details: EGCG 0.1, 1.0, 10 μM; with or without 100 nM insulin (FIG. 3D)
Method: as §1, §2

protein kinase B (PKB) [7] = assay: Western blot of PKB phosphorylation, L6; assay type: cell-based, rat; details: up to 10 μM EGCG; with or without 100 nM insulin (FIG. 4A)
Method: (§3) Rat L6 myoblasts were cultured in low-glucose DMEM with 10% (v/v) FBS until they reached 80% confluency. To induce differentiation, cells were further cultured in DMEM (24.9 mM glucose) containing 2% FBS for 7 days. Cell viability was assessed by the trypan blue viability test. Myogenic differentiation to myotube status was evaluated both morphologically and biochemically. Mouse 3T3-L1 preadipocytes were grown to confluence at 37° C. in 35-mm culture dishes in DMEM containing 10% FCS with no added biotin or pantothenate in incubators equilibrated with 5% CO2. At two days post-confluence (day 0), differentiation was induced with methylisobutylxanthine (0.5 mM), dexamethasone (0.5 μM) and insulin (5 μg/ml) in DMEM containing 10% FBS. On day 2, methylisobutylxanthine and dexamethasone were removed and insulin treatment was continued for 2 additional days. On day 4 and thereafter, DMEM (without insulin supplementation) plus 10% FBS was replaced every 2 days. Cells (2×10^6 cells/dish) were used for experiments on day 8. Cell differentiation was evaluated by the Oil red-0 staining. Human hepatocellular carcinoma HepG2 cell line was maintained in DMEM containing 10% FBS at 37° C. […]

protein kinase B (PKB) [8] = assay: Western blot of PKB phosphorylation, HepG2; assay type: cell-based, human; details: up to 10 μM EGCG; with or without 100 nM insulin (FIG. 4B)
Method: as §3

protein kinase B (PKB) [9] = assay: Western blot of PKB phosphorylation, 3T3-L1; assay type: cell-based, mouse; details: up to 10 μM EGCG; with or without 100 nM insulin (FIG. 4C)
Method: as §3

protein kinase B (PKB) [10] = assay: Western blot of PKB phosphorylation, INS-1; assay type: cell-based, rat; details: up to 10 μM EGCG; with or without 100 nM insulin (FIG. 4D)
[11] = 10 mg/kg i.v.; rats; cited from earlier work
[12] = relatively long-term intraperitoneal application; rats; cited from earlier work

O=C(O[C@@H]1Cc2c(O)cc(O)cc2O[C@@H]1c1ccc(O)c(O)c1)c1cc(O)c(O)c(O)c1 [ECG, epicatechin-3-gallate]
blood glucose levels 30 min after glucose loading vs control [1]: more elevated | pIC50 [2]: 7.00

Oc1cc(O)c2c(c1)O[C@H](c1cc(O)c(O)c(O)c1)[C@H](O)C2 [EGC, epigallocatechin]
blood glucose levels 30 min after glucose loading vs control [1]: no effects

O=c1c(O)c(-c2cc(O)c(O)c(O)c2)oc2cc(O)cc(O)c12 [myricetin]
concentration that inhibits cellular glucose uptake (U937 cells): around 10 μM

O=c1c(O)c(-c2ccc(O)c(O)c2)oc2cc(O)cc(O)c12 [quercetin]
concentration that inhibits cellular glucose uptake (U937 cells): around 10 μM

Epigallocatechin-3-gallate [EGCG]
blood glucose levels 30 min after glucose loading vs control [1]: more elevated | inhibition of glucose absorption compared with the GTE-treated group (OGTT in rats): less efficiently | rate of blood glucose disappearance when treated with insulin ([3]; EGCG 10 mg/kg i.v. 30 min before insulin 1 IU/kg i.p., rats, P<0.01 (FIG. 5C)): delayed mildly but significantly | blood glucose levels 30 min after injection ([3]; EGCG 10 mg/kg i.v., 4-h fasted normal rats, P<0.01 (FIG. 5A)): significant elevation | rate of blood glucose disappearance when treated with insulin ([4]; EGCG 10 mg/kg i.v. 30 min before insulin 1 IU/kg i.p., Kir6.2 k/o mice, P<0.01 (FIG. 5D)): delayed mildly but significantly | blood glucose levels 30 min after injection ([4]; EGCG 10 mg/kg i.v., 4-h fasted Kir6.2 k/o mice, P<0.01 (FIG. 5B)): significant elevation | basal and insulin-stimulated 2-deoxy-[3H]-glucose uptake [5]: decreased by EGCG dose-dependently | basal and insulin-stimulated 2-deoxy-[3H]-glucose uptake (HepG2 hepatocytes): decreased by EGCG dose-dependently | basal and insulin-stimulated 2-deoxy-[3H]-glucose uptake [6]: decreased by EGCG dose-dependently | basal and insulin-stimulated 2-deoxy-[3H]-glucose uptake (INS-1 beta cells): decreased by EGCG dose-dependently | basal and insulin-regulated expression of phospho-PKB (protein kinase B (PKB) [7]): did not alter | basal and insulin-regulated expression of phospho-PKB (protein kinase B (PKB) [8]): did not alter | basal and insulin-regulated expression of phospho-PKB (protein kinase B (PKB) [9]): did not alter | basal and insulin-regulated expression of phospho-PKB (protein kinase B (PKB) [10]): did not alter | pIC50 [2]: 6.00 | blood concentration at 30 min after injection [11]: around 1 μM | effect on body weight [12]: weight loss | effect on the sexual organs [12]: significant deterioration in the sexual organs
